Experimental data published in patent US20240352401A1, “FURFURAL-RESISTANT STRAIN AND METHOD FOR IMPROVING FURFURAL-RESISTANT OF STRAIN” (Korea Institute of Science and Technology, priority 2023, published 2024).

Experiments:
[1] = system: wild-type Yarrowia lipolytica strain (PO1f, ATCC MYA-2613); assay: Growth inhibition and glucose consumption of the parent strain according to furfural concentration (Reference Example 1); format: cell-based
Text: Confirmation of the degree of growth inhibition according to furfural in a parent strain Prior to the production of furfural-resistant strains, Yarrowia lipolytica PO1f strain having accession number ATCC MYA-2613, which are wild-type Yarrowia lipolytica, was selected as a parent strain, and the degree of growth inhibition and the degree of glucose consumption according to the concentration of furfural in the wild-type Yarrowia lipolytica strain, and the concentrations of furfural and furoic acid in the culture medium according to the cell culture time were confirmed.
Specifically, as the culture medium, a minimal medium (YSC medium (Yeast Synthetic Complete medium)) containing 6.7 g/L yeast nitrogen base (YNB), 20 g/L glucose as a carbon source and supplemented with complete supplement mixture (CSM) or CSM-Leu or CSM-Leu-Ura (MP Biomedicals, Solon, OH, USA) used. Furfural was added to the medium at concentrations of 0.1 g/L, 0.2 g/L, 0.3 g/L, 0.4 g/L or 0.5 g/L, respectively, and the growth rate was compared with that when furfural was not added. The culture was inoculated with the wild-type Yarrowia lipolytica strain with an initial OD600 value of 0.2 in 20 mL of the culture medium in a 100 mL Erlenmeyer flask, and then proceeded with shaking culture at 28° C. at 200 rpm. In this case, the wild-type strain is Yarrowia lipolytica PO1f strain with accession number ATCC MYA-2613. The “OD600” refers to the absorbance or optical density at a wavelength of 600 nm. It is possible to measure the density or concentration of microorganisms or cells in a sample by using the measured OD600.

[2] = system: Yarrowia lipolytica strain; settings: very low concentration (~0.5 g/L) of furfural; cited from earlier work
[3] = furfural 0.1-0.5 g/L in YSC medium, 20 g/L glucose, 28° C., 200 rpm

For `O=Cc1ccco1` [furfural], the “initial growth of the wild-type strain” value ([1]; 0.2 g/L or more of furfural) was “growth was delayed”, the “growth of the wild-type strain” value ([1]; 0.5 g/L of furfural) was “no growth was observed” and the “growth of the wild-type Yarrowia lipolytica strain as the furfural concentration increased” value [1, 3] was “clearly inhibited”. The “rate of glucose consumption as the furfural concentration increased” value [1, 3] was “reduced” and the “cell growth of Yarrowia lipolytica strain” value [2] was “significantly inhibited”.
